{"source": "ChEMBL document CHEMBL5247655", "about": "“Simplified Derivatives of Tetrandrine as Potent and Specific P-gp Inhibitors to Reverse Multidrug Resistance in Cancer Chemotherapy” (J Med Chem, 2023)", "key": {"[1]": {"tested_on": "ECa-109 cell line", "assay": "Induction of apoptosis in vincristine resistant human Eca-109 cells assessed as necrotic cells at 1 uM incubated for 24 hrs in presence of vincristine by AnnexinV-FITC/PI staining based flow cytometric analysis (reference value: 0.35%)", "type": "functional"}, "[2]": {"assay": "Toxicity in nude mouse assessed as change in body weight at 30 mg/kg administered every 2 days for 21 days", "type": "organism-based", "conditions": "in vivo, 48 h, time 2 day"}, "[3]": {"tested_on": "ECa-109 cell line", "assay": "Synergistic anticancer activity in vincristine resistant human Eca-109 cells assessed as combination index at 10:1 compound to vincristine ratio measured after 48 hrs", "type": "functional"}, "[4]": {"tested_on": "ECa-109 cell line", "assay": "Induction of apoptosis in vincristine resistant human Eca-109 cells assessed as early apoptotic cells at 2.5 uM incubated for 24 hrs by AnnexinV-FITC/PI staining based flow cytometric analysis (reference value: 2.30%)", "type": "functional"}, "[5]": {"tested_on": "ECa-109 cell line", "assay": "Synergistic antitumor activity against in vincristine resistant p-gp overexpressing human Eca-109 cells xenografted in nude mouse assessed as increase in nuclear pyknosis at 30 mg/kg, IG administered every two days for 21 days in presence of vincristine by TUNEL analysis", "type": "functional, organism-based", "conditions": "time 21.0 day"}, "[6]": {"tested_on": "ECa-109 cell line", "assay": "Reversal of VCR -resistance in human Eca-109 cells assessed as cell viability at 2.5 uM incubated for 48 hrs by CCK-8 method (reference value: 6830.0+/-537.0 nM)", "type": "functional, cell-based", "conditions": "ECa-109, 48 h"}, "[7]": {"target": "ATP-dependent translocase ABCB1 (Homo sapiens, UniProt P08183)", "sequence (P08183 whole entry)": "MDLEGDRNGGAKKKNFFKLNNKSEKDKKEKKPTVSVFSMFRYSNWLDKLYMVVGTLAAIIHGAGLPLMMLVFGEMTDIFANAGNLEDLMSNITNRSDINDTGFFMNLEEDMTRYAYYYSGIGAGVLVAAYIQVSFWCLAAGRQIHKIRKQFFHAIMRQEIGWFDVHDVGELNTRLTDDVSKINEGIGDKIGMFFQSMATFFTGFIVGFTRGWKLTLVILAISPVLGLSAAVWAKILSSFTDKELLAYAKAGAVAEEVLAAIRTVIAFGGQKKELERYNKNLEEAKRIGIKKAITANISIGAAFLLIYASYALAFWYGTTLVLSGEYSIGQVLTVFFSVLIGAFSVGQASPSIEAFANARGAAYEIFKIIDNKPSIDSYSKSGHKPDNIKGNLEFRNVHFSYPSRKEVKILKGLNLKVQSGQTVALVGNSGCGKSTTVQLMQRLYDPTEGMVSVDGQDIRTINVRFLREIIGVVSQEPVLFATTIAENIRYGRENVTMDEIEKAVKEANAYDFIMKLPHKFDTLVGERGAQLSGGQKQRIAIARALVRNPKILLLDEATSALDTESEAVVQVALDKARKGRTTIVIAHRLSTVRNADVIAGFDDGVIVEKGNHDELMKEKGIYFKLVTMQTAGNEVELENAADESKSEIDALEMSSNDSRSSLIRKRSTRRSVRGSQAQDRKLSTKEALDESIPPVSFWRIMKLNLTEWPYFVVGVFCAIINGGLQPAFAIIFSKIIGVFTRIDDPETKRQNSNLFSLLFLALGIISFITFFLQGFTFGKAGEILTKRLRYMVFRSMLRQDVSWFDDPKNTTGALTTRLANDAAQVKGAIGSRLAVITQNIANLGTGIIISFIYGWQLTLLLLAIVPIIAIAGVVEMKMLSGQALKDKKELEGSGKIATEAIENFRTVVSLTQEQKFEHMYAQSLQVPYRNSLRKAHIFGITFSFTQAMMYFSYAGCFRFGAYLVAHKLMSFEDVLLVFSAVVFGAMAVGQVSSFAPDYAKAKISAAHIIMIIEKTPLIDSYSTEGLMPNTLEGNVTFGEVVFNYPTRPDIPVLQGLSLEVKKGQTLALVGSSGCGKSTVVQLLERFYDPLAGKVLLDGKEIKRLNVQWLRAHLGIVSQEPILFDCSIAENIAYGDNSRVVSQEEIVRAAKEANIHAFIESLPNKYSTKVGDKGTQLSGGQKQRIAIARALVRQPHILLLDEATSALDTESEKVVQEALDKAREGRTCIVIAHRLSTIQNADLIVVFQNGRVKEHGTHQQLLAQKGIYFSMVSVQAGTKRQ", "assay": "Inhibition of P-gp efflux in vincristine resistant human Eca-109 cells assessed as increase in rhodamine 123 accumulation incubated for 3 hrs by DAPI staining based laser-scanning confocal microscopy analysis", "type": "cell-based", "conditions": "eca-109, 3 h, at 1 to 5 µM, dose 1-5 µM"}, "[8]": {"assay": "Tmax in Sprague-Dawley rat at 30 mg/kg, po measured upto 24 hrs by UPLC/MS/MS analysis", "type": "ADME, organism-based", "conditions": "in vivo"}, "[9]": {"assay": "Toxicity in nude mouse assessed as change in body weight at 30 mg/kg administered every 2 days for 21 days in presence of vincristine", "type": "organism-based", "conditions": "in vivo, 48 h, time 2 day"}, "[10]": {"tested_on": "ECa-109 cell line", "assay": "Induction of apoptosis in vincristine resistant human Eca-109 cells assessed as early apoptotic cells at 1 uM incubated for 24 hrs by AnnexinV-FITC/PI staining based flow cytometric analysis (reference value: 2.30%)", "type": "functional"}, "[11]": {"tested_on": "ECa-109 cell line", "assay": "Reversal of vincristine-resistance in human Eca-109 cells assessed as fold reversal by measuring cell viability at 5 uM incubated for 48 hrs by CCK-8 method relative to vincristine alone", "type": "functional"}, "[12]": {"assay": "Terminal elimination half life in Sprague-Dawley rat at 3 mg/kg, iv measured upto 24 hrs by UPLC/MS/MS analysis", "type": "ADME, organism-based", "conditions": "in vivo, read-out: LambdaZ (converted)"}, "[13]": {"tested_on": "ECa-109 cell line", "assay": "Induction of apoptosis in vincristine resistant human Eca-109 cells assessed as early apoptotic cells at 5 uM incubated for 24 hrs in presence of vincristine by AnnexinV-FITC/PI staining based flow cytometric analysis (reference value: 4.43%)", "type": "functional"}, "[14]": {"assay": "Apparent oral clearance in Sprague-Dawley rat at 30 mg/kg, po measured upto 24 hrs by UPLC/MS/MS analysis", "type": "ADME, organism-based", "conditions": "in vivo"}, "[15]": {"assay": "Cytotoxicity against human LX2 cells incubated for 48 hrs by CCK-8 method", "type": "toxicity, cell-based, LX-2"}, "[16]": {"assay": "Terminal elimination half life in Sprague-Dawley rat at 30 mg/kg, po measured upto 24 hrs by UPLC/MS/MS analysis", "type": "ADME, organism-based", "conditions": "in vivo, read-out: LambdaZ (converted)"}, "[17]": {"tested_on": "ECa-109", "assay": "Downregulation of P-gp expression in vincristine resistant human Eca-109 cells at 2.5 to 10 uM incubated for 24 hrs by Western blot analysis", "type": "functional, cell-based", "conditions": "dose 2.5-10 µM"}, "[18]": {"tested_on": "ECa-109 cell line", "assay": "Induction of apoptosis in vincristine resistant human Eca-109 cells assessed as late apoptotic cells at 2.5 uM incubated for 24 hrs by AnnexinV-FITC/PI staining based flow cytometric analysis (reference value: 7.19%)", "type": "functional"}, "[19]": {"assay": "AUC (0 to infinity) in Sprague-Dawley rat at 30 mg/kg, po measured upto 24 hrs by UPLC/MS/MS analysis", "type": "ADME, organism-based", "design": "time < 24 hrs, dose 30 mg/kg, route po", "conditions": "in vivo"}, "[20]": {"tested_on": "ECa-109 cell line", "assay": "Induction of apoptosis in vincristine resistant human Eca-109 cells assessed as necrotic cells at 2.5 uM incubated for 24 hrs by AnnexinV-FITC/PI staining based flow cytometric analysis (reference value: 0.25%)", "type": "functional"}, "[21]": {"assay": "MRT (0 to infinity) in Sprague-Dawley rat at 30 mg/kg, po measured upto 24 hrs by UPLC/MS/MS analysis", "type": "ADME, organism-based", "conditions": "in vivo"}, "[22]": {"tested_on": "ECa-109 cell line", "assay": "Reversal of VCR -resistance in human Eca-109 cells assessed as cell viability at 1 uM incubated for 48 hrs by CCK-8 method (reference value: 6830.0+/-537.0 nM)", "type": "functional, cell-based", "conditions": "ECa-109, 48 h"}, "[23]": {"assay": "Cytotoxicity against HEK293T cells incubated for 48 hrs by CCK-8 method", "type": "toxicity, cell-based, HEK-293T", "conditions": "human"}, "[24]": {"tested_on": "ECa-109 cell line", "assay": "Induction of apoptosis in vincristine resistant human Eca-109 cells assessed as viable cells at 2.5 uM incubated for 24 hrs by AnnexinV-FITC/PI staining based flow cytometric analysis (reference value: 90.3%)", "type": "functional", "conditions": "read-out: Activity"}}, "note": "Active and inactive are the calls of the source. The calls are words filed in the database; no cut-off is given here.", "data": [{"smiles": "COc1cc2c(cc1OC)C(Cc1ccc(OC)c(OCc3ccccc3)c1)N(C)CC2", "note": "(centres undefined)", "values": [{"measurement": "Activity", "setting": "[1]", "result": 0.37, "unit": "%"}, {"measurement": "Activity", "setting": "[2]", "result": "Non-Toxic"}, {"measurement": "CI", "setting": "[3]", "result": "<1"}, {"measurement": "Activity", "setting": "[4]", "result": 2.26, "unit": "%"}, {"measurement": "Activity", "setting": "[5]", "result": "Active"}, {"measurement": "IC50", "setting": "[6]", "result": 66.1, "unit": "nM"}, {"measurement": "inhibition (INH)", "setting": "[7]", "result": "Dose-Dependent Effect"}, {"measurement": "Tmax", "setting": "[8]", "result": 0.38, "unit": "h"}, {"measurement": "Activity", "setting": "[9]", "result": "Non-Toxic"}, {"measurement": "Activity", "setting": "[10]", "result": 2.07, "unit": "%"}, {"measurement": "fold change (FC)", "setting": "[11]", "result": 690.6}, {"measurement": "k el at 24 h", "setting": "[12]", "result": "4.17e-05", "unit": "s⁻¹"}, {"measurement": "Activity", "setting": "[13]", "result": 24.9, "unit": "%"}, {"measurement": "CL/F", "setting": "[14]", "result": 186, "unit": "mL/min/kg"}, {"measurement": "IC50 at 48 h", "setting": "[15]", "result": "> 50000", "unit": "nM"}, {"measurement": "k el at 24 h", "setting": "[16]", "result": "3.33e-05", "unit": "s⁻¹"}, {"measurement": "Activity", "setting": "[17]", "result": "inactive"}, {"measurement": "Activity", "setting": "[18]", "result": 5.69, "unit": "%"}, {"measurement": "AUC(0-inf)", "setting": "[19]", "result": 2740, "unit": "ng·h/mL"}, {"measurement": "Activity", "setting": "[20]", "result": 0.11, "unit": "%"}, {"measurement": "MRT inf", "setting": "[21]", "result": 4.89, "unit": "h"}, {"measurement": "IC50", "setting": "[22]", "result": 1870, "unit": "nM"}, {"measurement": "IC50 at 48 h", "setting": "[23]", "result": "> 50000", "unit": "nM"}, {"measurement": "viability at 2.5 µM", "setting": "[24]", "result": 91.9, "unit": "%"}]}]}
